# Patent US11739101B2, “Bifunctional degraders of hematopoietic progenitor kinase and therapeutic uses thereof” (Nurix Therapeutics, Inc., priority 2020, dated 2023)
# Biological target: T1, HPK1 (Homo sapiens, UniProt Q92918)
# T1 construct: A HiBiT tag was introduced by CRISPR on the N terminus of HPK1 in Jurkat cells; host or cells: Jurkat (ATCC TIB-152), monoclonal CRISPR HiBiT knock-in line
# Assay: HPK1 Cellular HiBiT Degradation Assay
# Assay type: cell-based
# Details: HiBiT-tagged HPK1 Jurkat cells, 24 hours, 10 uM to 0.1 nM; Dmax = 100 minus lowest % HPK1 remaining vs DMSO vehicle
# Procedure, shortened: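 Dmax is derived from four-parameter curves of % HPK1 remaining, as 100 minus the lowest value, normalized to DMSO-treated cells with parental Jurkat background subtracted. HiBiT-HPK1 knock-in Jurkat cells got compound for 24 hours (final 10 uM to 0.1 nM, 11 points) before lytic HiBiT luminescence. Cytotoxicity was checked on parallel CellTiter-Glo plates.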
# T1 sequence (Q92918 whole entry): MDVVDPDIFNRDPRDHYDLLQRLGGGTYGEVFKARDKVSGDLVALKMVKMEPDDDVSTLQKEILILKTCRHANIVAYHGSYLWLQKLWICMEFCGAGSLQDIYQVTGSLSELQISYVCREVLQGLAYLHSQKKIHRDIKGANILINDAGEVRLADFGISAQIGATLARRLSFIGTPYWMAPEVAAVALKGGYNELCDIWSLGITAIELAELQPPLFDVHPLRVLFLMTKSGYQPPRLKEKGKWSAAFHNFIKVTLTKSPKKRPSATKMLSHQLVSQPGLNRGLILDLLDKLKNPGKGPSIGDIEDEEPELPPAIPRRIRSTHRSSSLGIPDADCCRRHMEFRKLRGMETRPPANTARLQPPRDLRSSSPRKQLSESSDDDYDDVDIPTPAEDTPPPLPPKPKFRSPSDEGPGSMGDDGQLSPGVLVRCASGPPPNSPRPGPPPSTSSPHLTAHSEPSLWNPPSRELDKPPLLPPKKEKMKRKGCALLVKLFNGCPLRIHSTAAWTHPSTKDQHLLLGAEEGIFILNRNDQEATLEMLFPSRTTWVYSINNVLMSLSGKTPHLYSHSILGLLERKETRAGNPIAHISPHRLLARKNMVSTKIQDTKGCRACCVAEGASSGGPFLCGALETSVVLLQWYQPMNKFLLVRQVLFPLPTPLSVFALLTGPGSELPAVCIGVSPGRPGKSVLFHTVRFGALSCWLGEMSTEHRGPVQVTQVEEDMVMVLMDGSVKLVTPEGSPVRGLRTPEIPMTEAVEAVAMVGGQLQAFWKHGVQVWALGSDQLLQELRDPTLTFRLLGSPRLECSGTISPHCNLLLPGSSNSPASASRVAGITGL
row,Dmax,SMILES
1,> 65%,"Cc1cc(F)c(Nc2nc(-c3ccc4c(c3)N([C@H]3C[C@@H](N5CCCCC5)C3)C(=O)C43CCN(C(=O)C4CCN(C(=O)[C@H]5CC[C@H](N(C)c6cccc7c6C(=O)N(C6CCC(=O)NC6=O)C7=O)CC5)CC4)CC3)cc3ncn(C(C)C)c23)cc1C(=O)NC(C)C (stereo partly drawn) [Example 66, 4-fluoro-2-methyl-5-{[6-(2-oxo-1′-{1-[(1R,4R)-4-({2-[2,6-dioxopiperidin-3-yl]-1,3-dioxo-2,3-dihydro-1H-isoindol-4-yl}(methyl)amino)cyclohexanecarbonyl]piperidine-4-carbonyl}-1-[(1s,3s)-3-(piperidin-1-yl)cyclobutyl]-1,2-dihydrospiro[indole-3,4′-piperidin]-6-yl)-3-(propan-2-yl)-3H-imidazo[4,5-c]pyridin-4-yl]amino}-N-(propan-2-yl)benzamide]"
2,45 to 65%,"Cc1cc(F)c(Nc2nc(-c3ccc4c(c3)N([C@H]3C[C@@H](N5CCCCC5)C3)C(=O)C43CCN(C(=O)[C@@H]4CCN(C(=O)N5CCC(Nc6cccc7c6C(=O)N(C6CCC(=O)NC6=O)C7=O)CC5)C4)CC3)cc3ncn(C(C)C)c23)cc1C(=O)NC(C)C (stereo partly drawn) [Example 69, 5-[(6-{1′-[(3R)-1-[4-({2-[2,6-dioxopiperidin-3-yl]-1,3-dioxo-2,3-dihydro-1H-isoindol-4-yl}amino)piperidine-1-carbonyl]pyrrolidine-3-carbonyl]-2-oxo-1-[(1S,3s)-3-(piperidin-1-yl)cyclobutyl]-1,2-dihydrospiro[indole-3,4′-piperidin]-6-yl}-3-(propan-2-yl)-3H-imidazo[4,5-c]pyridin-4-yl)amino]-4-fluoro-2-methyl-N-(propan-2-yl)benzamide]"
3,45 to 65%,"Cc1cc(F)c(Nc2nc(-c3ccc4c(c3)N([C@H]3C[C@@H](N5CCCCC5)C3)C(=O)C43CCN(C(=O)c4cnn(C[C@H]5CC[C@H](Nc6cccc7c6C(=O)N(C6CCC(=O)NC6=O)C7=O)CC5)c4)CC3)cc3ncn(C(C)C)c23)cc1C(=O)NC(C)C (stereo partly drawn) [Example 70, 4-fluoro-2-methyl-5-({6-[2-oxo-1′-(1-{[(1R,4R)-4-({2-[2,6-dioxopiperidin-3-yl]-1,3-dioxo-2,3-dihydro-1H-isoindol-4-yl}amino)cyclohexyl]methyl}-1H-pyrazole-4-carbonyl)-1-[(1s,3s)-3-(piperidin-1-yl)cyclobutyl]-1,2-dihydrospiro[indole-3,4′-piperidin]-6-yl]-3-(propan-2-yl)-3H-imidazo[4,5-c]pyridin-4-yl}amino)-N-(propan-2-yl)benzamide]"
4,> 65%,"Cc1cc(F)c(Nc2nc(-c3ccc4c(c3)N([C@H]3C[C@@H](N5CCCCC5)C3)C(=O)C43CCN(C(=O)c4ccc(C(=O)N5CCN(c6ccc7c(c6)C(=O)N(C6CCC(=O)NC6=O)C7=O)CC5)cc4Cl)CC3)cc3ncn(C(C)C)c23)cc1C(=O)NC(C)C (stereo partly drawn) [Example 71, 5-[(6-{1′-[2-chloro-4-(4-{2-[2,6-dioxopiperidin-3-yl]-1,3-dioxo-2,3-dihydro-1H-isoindol-5-yl}piperazine-1-carbonyl)benzoyl]-2-oxo-1-[(1s,3s)-3-(piperidin-1-yl)cyclobutyl]-1,2-dihydrospiro[indole-3,4′-piperidin]-6-yl}-3-(propan-2-yl)-3H-imidazo[4,5-c]pyridin-4-yl)amino]-4-fluoro-2-methyl-N-(propan-2-yl)benzamide]"
5,> 65%,"Cc1cc(F)c(Nc2nc(-c3ccc4c(c3)N([C@H]3C[C@@H](N5CCCCC5)C3)C(=O)C43CCN(C(=O)[C@H]4CCN(C[C@H]5CC[C@H](Nc6cccc7c6C(=O)N(C6CCC(=O)NC6=O)C7=O)CC5)C4)CC3)cc3ncn(C(C)C)c23)cc1C(=O)NC(C)C (stereo partly drawn) [Example 73, 4-fluoro-2-methyl-5-[(6-{2-oxo-1′-[(3R)-1-{[(1R,4R)-4-({2-[2,6-dioxopiperidin-3-yl]-1,3-dioxo-2,3-dihydro-1H-isoindol-4-yl}amino)cyclohexyl]methyl}pyrrolidine-3-carbonyl]-1-[(1s,3s)-3-(piperidin-1-yl)cyclobutyl]-1,2-dihydrospiro[indole-3,4′-piperidin]-6-yl}-3-(propan-2-yl)-3H-imidazo[4,5-c]pyridin-4-yl)amino]-N-(propan-2-yl)benzamide]"

# The remaining lines, values behind:
row,SMILES,Dmax
1,"Cc1cc(F)c(Nc2nc(-c3ccc4c(c3)N([C@H]3C[C@@H](N5CCCCC5)C3)C(=O)C43CCN(C(=O)c4ccn(C5CCN(Cc6cccc7c6C(=O)N(C6CCC(=O)NC6=O)C7=O)CC5)n4)CC3)cc3ncn(C(C)C)c23)cc1C(=O)NC(C)C (stereo partly drawn) [Example 65, 5-{[6-(1′-{1-[1-({2-[2,6-dioxopiperidin-3-yl]-1,3-dioxo-2,3-dihydro-1H-isoindol-4-yl}methyl)piperidin-4-yl]-1H-pyrazole-3-carbonyl}-2-oxo-1-[(1s,3s)-3-(piperidin-1-yl)cyclobutyl]-1,2-dihydrospiro[indole-3,4′-piperidin]-6-yl)-3-(propan-2-yl)-3H-imidazo[4,5-c]pyridin-4-yl]amino}-4-fluoro-2-methyl-N-(propan-2-yl)benzamide]",45 to 65%
2,"Cc1cc(F)c(Nc2nc(-c3ccc4c(c3)N([C@H]3C[C@@H](N5CCCCC5)C3)C(=O)C43CCN(C(=O)[C@@H]4CCN(C(=O)[C@H]5CC[C@H](N(C)c6cccc7c6C(=O)N(C6CCC(=O)NC6=O)C7=O)CC5)C4)CC3)cc3ncn(C(C)C)c23)cc1C(=O)NC(C)C (stereo partly drawn) [Example 67, 4-fluoro-2-methyl-5-[(6-{2-oxo-1′-[(3R)-1-[(R,4R)-4-({2-[2,6-dioxopiperidin-3-yl]-1,3-dioxo-2,3-dihydro-1H-isoindol-4-yl}(Methyl)amino)cyclohexanecarbonyl]pyrrolidine-3-carbonyl]-1-[(1s,3s)-3-(piperidin-1-yl)cyclobutyl]-1,2-dihydrospiro[indole-3,4′-piperidin]-6-yl}-3-(propan-2-yl)-3H-imidazo[4,5-c]pyridin-4-yl)amino]-N-(propan-2-yl)benzamide]",> 65%
3,"Cc1cc(F)c(Nc2nc(-c3ccc4c(c3)N([C@H]3C[C@@H](N5CCCCC5)C3)C(=O)C43CCN(C(=O)C4CCN(C(=O)N5CCC(Nc6cccc7c6C(=O)N(C6CCC(=O)NC6=O)C7=O)CC5)CC4)CC3)cc3ncn(C(C)C)c23)cc1C(=O)NC(C)C (stereo partly drawn) [Example 68, 5-{[6-(1′-{1-[4-({2-[2,6-dioxopiperidin-3-yl]-1,3-dioxo-2,3-dihydro-1H-isoindol-4-yl}amino)piperidine-1-carbonyl]piperidine-4-carbonyl}-2-oxo-1-[(1s,3s)-3-(piperidin-1-yl)cyclobutyl]-1,2-dihydrospiro[indole-3,4′-piperidin]-6-yl)-3-(propan-2-yl)-3H-imidazo[4,5-c]pyridin-4-yl]amino}-4-fluoro-2-methyl-N-(propan-2-yl)benzamide]",45 to 65%
4,"Cc1cc(F)c(Nc2nc(-c3ccc4c(c3)N([C@H]3C[C@@H](N5CCCCC5)C3)C(=O)C43CCN(C(=O)c4ccc(C(=O)N5CCN(c6ccc7c(c6)C(=O)N(C6CCC(=O)NC6=O)C7=O)CC5C)cc4)CC3)cc3ncn(C(C)C)c23)cc1C(=O)NC(C)C (stereo partly drawn) [Example 72, 5-[(6-{1′-[4-(4-{2-[2,6-dioxopiperidin-3-yl]-1,3-dioxo-2,3-dihydro-1H-isoindol-5-yl}-2-methylpiperazine-1-carbonyl)benzoyl]-2-oxo-1-[(1s,3s)-3-(piperidin-1-yl)cyclobutyl]-1,2-dihydrospiro[indole-3,4′-piperidin]-6-yl}-3-(propan-2-yl)-3H-imidazo[4,5-c]pyridin-4-yl)amino]-4-fluoro-2-methyl-N-(propan-2-yl)benzamide]",> 65%
